Results on 27 compounds are retold here after patent publication US9902703B2, “Somatostatin modulators and uses thereof” (Crinetics Pharmaceuticals, Inc., priority 2015, dated 2018).

The target of this experiment is T1, human somatostatin receptor subtype 2 (Homo sapiens, UniProt P30874).
T1 construct: expressed in transfected cells; host or cells: CHO (Chinese hamster ovary) cells, G-418 selected
T1 sequence (P30874 whole entry): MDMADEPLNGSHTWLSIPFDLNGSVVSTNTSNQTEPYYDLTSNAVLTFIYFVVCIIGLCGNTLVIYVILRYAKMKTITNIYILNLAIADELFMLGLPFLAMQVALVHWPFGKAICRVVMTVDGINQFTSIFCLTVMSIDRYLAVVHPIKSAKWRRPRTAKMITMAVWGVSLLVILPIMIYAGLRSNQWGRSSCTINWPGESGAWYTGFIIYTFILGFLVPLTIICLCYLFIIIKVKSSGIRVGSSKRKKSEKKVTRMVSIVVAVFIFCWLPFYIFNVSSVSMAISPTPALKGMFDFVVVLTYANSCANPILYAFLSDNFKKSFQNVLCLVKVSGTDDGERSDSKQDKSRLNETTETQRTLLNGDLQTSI
As to the kind of experiment: cAMP assay (functional assay for SSTR2 agonists). To be noted: CHO cells expressing human SSTR2; intracellular cAMP with forskolin, HTRF; read-out: SSTR2a EC50. Format: cell-based. Summed up: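 CHO cells expressing human SSTR2 were treated with compound for 15 min at 37° C in buffer with forskolin, 0.2 mM IBMX and 0.1% BSA. Intracellular cAMP was read by HTRF after 1-24 h lysis at room temperature, and EC50 came from cAMP versus compound concentration curves.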
(Changes in cAMP serve as a functional read-out for many G protein-coupled receptors.)
What is called EC50 is the midpoint of the concentration-response curve. Turning to `Cc1cc(Cl)cc(N2C=Nc3cc(C)c(-c4ccc5[nH]c(=O)[nH]c5c4)cc3C2C(=O)N(C)C[C@@H]2CCCN2)c1` (stereo partly drawn) [Compound 2-34, 3-(3-chloro-5-methylphenyl)-N,7-dimethyl-6-(2-oxo-2,3-dihydro-1H-1,3-benzodiazol-5-yl)-N-[(2S)-pyrrolidin-2-ylmethyl]-3,4-dihydroquinazoline-4-carboxamide], the EC50 was below 100 nM.

On to `COc1ccc(F)c(-c2cc3c(cc2C)N=CN(c2cc(C)cc(Cl)c2)C3C(=O)N(C)C[C@@H]2CCCN2)c1` (stereo partly drawn) [Compound 2-5, 3-(3-chloro-5-methylphenyl)-6-(2-fluoro-5-methoxyphenyl)-N,7-dimethyl-N-[(2S)-pyrrolidin-2-ylmethyl]-3,4-dihydroquinazoline-4-carboxamide], for which the EC50 was below 100 nM.

Regarding `Cc1cc(Cl)cc(N2C=Nc3cc(C)c(-c4cc(C)oc4C)cc3C2C(=O)N(C)C[C@@H]2CCCN2)c1` (stereo partly drawn) [Compound 2-25, 3-(3-chloro-5-methylphenyl)-6-(2,5-dimethylfuran-3-yl)-N,7-dimethyl-N-[(2S)-pyrrolidin-2-ylmethyl]-3,4-dihydroquinazoline-4-carboxamide], the EC50 lay within 100 to 1000 nM.

Regarding `Cc1cc(Cl)cc(N2C=Nc3cc(C)c(-c4cc(F)cc(F)c4)cc3C2C(=O)N(C)C[C@@H]2CCCN2)c1` (stereo partly drawn) [Compound 1-40, 3-(3-chloro-5-methylphenyl)-6-(3,5-difluorophenyl)-N,7-dimethyl-N-[(2S)-pyrrolidin-2-ylmethyl]-3,4-dihydroquinazoline-4-carboxamide], the EC50 is below 100 nM.

Turning to `Cc1cc(Cl)cc(N2C=Nc3cc(C)c(-c4cc(C(N)=O)ccc4Cl)cc3C2C(=O)N(C)C[C@@H]2CCCN2)c1` (stereo partly drawn) [Compound 2-29, 6-(5-carbamoyl-2-chlorophenyl)-3-(3-chloro-5-methylphenyl)-N,7-dimethyl-N-[(2S)-pyrrolidin-2-ylmethyl]-3,4-dihydroquinazoline-4-carboxamide], the EC50 is below 100 nM.

For `CC[C@H](N)CN(C)C(=O)C1c2cc(-c3cc(C)cc(O)c3)c(Cl)cc2N=CN1c1cc(C)cc(C)c1` (stereo partly drawn) [Compound 1-7, N-[(2S)-2-aminobutyl]-7-chloro-3-(3,5-dimethylphenyl)-6-(3-hydroxy-5-methylphenyl)-N-methyl-3,4-dihydroquinazoline-4-carboxamide], the EC50 is below 100 nM.

Take `Cc1cc(Cl)cc(N2C=Nc3cc(C)c(-c4ccccc4)cc3C2C(=O)N(C)C[C@@H]2CCCN2)c1` (stereo partly drawn) [Compound 1-32, 3-(3-chloro-5-methylphenyl)-N,7-dimethyl-6-phenyl-N-[(2S)-pyrrolidin-2-ylmethyl]-3,4-dihydroquinazoline-4-carboxamide]: the EC50 is below 100 nM.

On to `Cc1cc(C)cc(N2C=Nc3cc(C)c(-c4cccc(O)c4)cc3C2C(=O)NC[C@@H]2CCCN2)c1` (stereo partly drawn) [Compound 1-51, 3-(3,5-dimethylphenyl)-6-(3-hydroxyphenyl)-7-methyl-N-[(2S)-pyrrolidin-2-ylmethyl]-3,4-dihydroquinazoline-4-carboxamide], for which the concentration giving a half-maximal response (EC50) is 1000 to 10000 nM.

In the case of `Cc1cc(Cl)cc(N2C=Nc3cc(C)c(-c4ccncc4Cl)cc3C2C(=O)N(C)C[C@@H]2CCCN2)c1` (stereo partly drawn) [Compound 2-26, 3-(3-chloro-5-methylphenyl)-6-(3-chloropyridin-4-yl)-N,7-dimethyl-N-[(2S)-pyrrolidin-2-ylmethyl]-3,4-dihydroquinazoline-4-carboxamide], the EC50 fell in the range of 100 to 1000 nM.

`COc1cc(F)cc(N2C=Nc3cc(C)c(-c4cc(O)ccc4F)cc3C2C(=O)N(C)C[C@@H]2CCCN2C)c1` (stereo partly drawn) [Compound 1-52, 6-(2-fluoro-5-hydroxyphenyl)-3-(3-fluoro-5-methoxyphenyl)-N,7-dimethyl-N-{[(2S)-1-methylpyrrolidin-2-yl]methyl}-3,4-dihydroquinazoline-4-carboxamide]: the EC50 was below 100 nM.

Turning to `Cc1cc(Cl)cc(N2C=Nc3cc(C)c(-c4cc(F)cc(C(N)=O)c4)cc3C2C(=O)N(C)C[C@@H]2CCCN2)c1` (single isomer, unassigned) [Compound 3-1], the EC50 is below 100 nM.

Take `COc1cc(-c2cc3c(cc2C)N=CN(c2cc(C)cc(Cl)c2)C3C(=O)N(C)C[C@@H]2CCCN2)ccc1C` (stereo partly drawn) [Compound 2-16, 3-(3-chloro-5-methylphenyl)-6-(3-methoxy-4-methylphenyl)-N,7-dimethyl-N-[(2S)-pyrrolidin-2-ylmethyl]-3,4-dihydroquinazoline-4-carboxamide]: the EC50 is below 100 nM.

In the case of `Cc1cc(Cl)cc(N2C=Nc3cc(C)c(-c4cc(Cl)cc(C5(C#N)CC5)c4)cc3C2C(=O)N(C)C[C@@H]2CCCN2)c1` (stereo partly drawn) [Compound 2-17, 6-[3-chloro-5-(1-cyanocyclopropyl)phenyl]-3-(3-chloro-5-methylphenyl)-N,7-dimethyl-N-[(2S)-pyrrolidin-2-ylmethyl]-3,4-dihydroquinazoline-4-carboxamide], the EC50 was below 100 nM.

Take `Cc1cc(Cl)cc(N2C=Nc3cc(C)c(-c4cc(C(N)=O)ccn4)cc3C2C(=O)N(C)C[C@@H]2CCCN2)c1` (stereo partly drawn) [Compound 2-14, 6-(4-carbamoylpyridin-2-yl)-3-(3-chloro-5-methylphenyl)-N,7-dimethyl-N-[(2S)-pyrrolidin-2-ylmethyl]-3,4-dihydroquinazoline-4-carboxamide]: the EC50 was 100 to 1000 nM.

`Cc1cc(Cl)cc(N2C=Nc3cc(C)c(-c4cnn(C)c4)cc3C2C(=O)N(C)C[C@@H]2CCCN2)c1` (stereo partly drawn) [Compound 2-1, 3-(3-chloro-5-methylphenyl)-N,7-dimethyl-6-(1-methyl-1H-pyrazol-4-yl)-N-[(2S)-pyrrolidin-2-ylmethyl]-3,4-dihydroquinazoline-4-carboxamide]: the EC50 was in the range of 100 to 1000 nM.

In the case of `Cc1cc(Cl)cc(N2C=Nc3cc(C)c(-c4cc(C(F)(F)F)cnc4Cl)cc3C2C(=O)N(C)C[C@@H]2CCCN2)c1` (stereo partly drawn) [Compound 2-19, 6-[2-chloro-5-(trifluoromethyl)pyridin-3-yl]-3-(3-chloro-5-methylphenyl)-N,7-dimethyl-N-[(2S)-pyrrolidin-2-ylmethyl]-3,4-dihydroquinazoline-4-carboxamide], the EC50 was below 100 nM.

On to `Cc1cc(Cl)cc(N2C=Nc3cc(C)c(-c4cccc(S(C)(=O)=O)c4)cc3C2C(=O)N(C)C[C@@H]2CCCN2)c1` (stereo partly drawn) [Compound 1-46, 3-(3-chloro-5-methylphenyl)-6-(3-methanesulfonylphenyl)-N,7-dimethyl-N-[(2S)-pyrrolidin-2-ylmethyl]-3,4-dihydroquinazoline-4-carboxamide], for which the EC50 was 100 to 1000 nM.

Consider `Cc1cc(Cl)cc(N2C=Nc3cc(C)c(-c4cc(O)ccc4Cl)cc3C2C(=O)N(C)C[C@@H]2CCCCN2)c1` (stereo partly drawn) [Compound 1-23, 6-(2-chloro-5-hydroxyphenyl)-3-(3-chloro-5-methylphenyl)-N,7-dimethyl-N-[(2S)-piperidin-2-ylmethyl]-3,4-dihydroquinazoline-4-carboxamide], for which the EC50 is below 100 nM.

On to `Cc1cc(F)cc(N2C=Nc3cc(C)c(-c4cc(O)cc(C#N)c4)cc3C2C(=O)N(C)C[C@@H]2CCCN2)c1` (stereo partly drawn) [Compound 1-54, 6-(3-cyano-5-hydroxyphenyl)-3-(3-fluoro-5-methylphenyl)-N,7-dimethyl-N-[(2S)-pyrrolidin-2-ylmethyl]-3,4-dihydroquinazoline-4-carboxamide], for which the EC50 was below 100 nM.

Turning to `CC[C@H](N)CN(C)C(=O)C1c2cc(-c3cc(O)c(F)cc3F)c(C)cc2N=CN1c1cc(C)cc(C)c1` (stereo partly drawn) [Compound 1-14, N-[(2S)-2-aminobutyl]-6-(2,4-difluoro-5-hydroxyphenyl)-3-(3,5-dimethylphenyl)-N,7-dimethyl-3,4-dihydroquinazoline-4-carboxamide], the EC50 lay within 100 to 1000 nM.

Turning to `Cc1cc(C#N)cc(-c2cc3c(cc2C)N=CN(c2cc(C)cc(Cl)c2)C3C(=O)N(C)C[C@@H]2CCCN2)c1` (stereo partly drawn) [Compound 1-39, 3-(3-chloro-5-methylphenyl)-6-(3-cyano-5-methylphenyl)-N,7-dimethyl-N-[(2S)-pyrrolidin-2-ylmethyl]-3,4-dihydroquinazoline-4-carboxamide], the half-maximal effective concentration (EC50) is below 100 nM.

In the case of `COc1c(C#N)cccc1-c1cc2c(cc1C)N=CN(c1cc(C)cc(Cl)c1)C2C(=O)N(C)C[C@@H]1CCCN1` (stereo partly drawn) [Compound 2-28, 3-(3-chloro-5-methylphenyl)-6-(3-cyano-2-methoxyphenyl)-N,7-dimethyl-N-[(2S)-pyrrolidin-2-ylmethyl]-3,4-dihydroquinazoline-4-carboxamide], the concentration for a half-maximal effect (EC50) was below 100 nM.

With `Cc1cc(Cl)cc(N2C=Nc3cc(C)c(-c4cncc(C#N)c4)cc3C2C(=O)N(C)C[C@@H]2CCCN2)c1` (stereo partly drawn) [Compound 2-18, 3-(3-chloro-5-methylphenyl)-6-(5-cyanopyridin-3-yl)-N,7-dimethyl-N-[(2S)-pyrrolidin-2-ylmethyl]-3,4-dihydroquinazoline-4-carboxamide], the EC50 is below 100 nM.

Take `Cc1cc(Cl)cc(N2C=Nc3cc(C)c(-c4cncc(O)c4)cc3C2C(=O)N(C)C[C@@H]2CCCN2)c1` (stereo partly drawn) [Compound 2-10, 3-(3-chloro-5-methylphenyl)-6-(5-hydroxypyridin-3-yl)-N,7-dimethyl-N-[(2S)-pyrrolidin-2-ylmethyl]-3,4-dihydroquinazoline-4-carboxamide]: the concentration giving a half-maximal response (EC50) is below 100 nM.

On to `Cc1cc(Cl)cc(N2C=Nc3cc(C)c(-c4cc(F)ccc4Cl)cc3C2C(=O)N(C)C[C@@H]2CCCN2)c1` (stereo partly drawn) [Compound 1-35, 6-(2-chloro-5-fluorophenyl)-3-(3-chloro-5-methylphenyl)-N,7-dimethyl-N-[(2S)-pyrrolidin-2-ylmethyl]-3,4-dihydroquinazoline-4-carboxamide], for which the EC50 was below 100 nM.

`CC[C@H](N)CN(C)C(=O)C1c2cc(-c3cc(O)ccc3Cl)c(C)cc2N=CN1c1cc(C)cc(C)c1` (stereo partly drawn) [Compound 1-16, N-[(2S)-2-aminobutyl]-6-(2-chloro-5-hydroxyphenyl)-3-(3,5-dimethylphenyl)-N,7-dimethyl-3,4-dihydroquinazoline-4-carboxamide]: the EC50 was below 100 nM.

In the case of `CC[C@H](N)CN(C)C(=O)C1c2cc(-c3cccc(O)c3)c(Cl)cc2N=CN1c1cc(C)cc(C)c1` (stereo partly drawn) [Compound 1-5, N-[(2S)-2-aminobutyl]-7-chloro-3-(3,5-dimethylphenyl)-6-(3-hydroxyphenyl)-N-methyl-3,4-dihydroquinazoline-4-carboxamide], the EC50 was below 100 nM.
